Laboratory results: US20100184786A1, “Polar Quinazolines” (Wyeth LLC, priority 2008, published 2010)

Assays:
human LXRβ = biological target: T1, human LXRβ (Homo sapiens, UniProt P55055); assay: Ligand-binding test procedure for human LXRβ (3H T0901317 tracer, flash plates); settings: competition with 3H T0901317; read-out: hLXRb binding IC50
T1 construct: biotin (biotinylated); made in house; host or cells: E. coli
T1 sequence (P55055 1-460): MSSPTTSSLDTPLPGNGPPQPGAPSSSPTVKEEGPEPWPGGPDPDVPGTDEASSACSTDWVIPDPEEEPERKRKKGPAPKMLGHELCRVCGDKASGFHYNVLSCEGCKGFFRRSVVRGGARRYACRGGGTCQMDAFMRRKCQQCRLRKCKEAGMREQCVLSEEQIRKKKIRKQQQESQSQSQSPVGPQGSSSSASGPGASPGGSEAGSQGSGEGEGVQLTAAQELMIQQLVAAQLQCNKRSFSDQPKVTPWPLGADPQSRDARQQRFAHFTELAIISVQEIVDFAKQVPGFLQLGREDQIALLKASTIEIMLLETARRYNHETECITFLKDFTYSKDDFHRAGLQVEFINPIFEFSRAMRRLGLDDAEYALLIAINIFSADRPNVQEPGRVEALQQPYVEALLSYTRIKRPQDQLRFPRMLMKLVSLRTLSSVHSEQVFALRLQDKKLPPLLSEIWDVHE
Description: I. Ligand-Binding Test Procedure for Human LXRβ.
• Buffer: 100 mM KCl, 100 mM TRIS (pH 7.4 at +4° C.), 8.6% glycerol, 0.1 mM PMSF*, 2 mM MTG*, 0.2% CHAPS (* not used in wash buffer) • Tracer: ^3H T0901317 • Receptor source: E. coli extracted from cells expressing biotinylated hLXRβ. Extract was made in a similar buffer as above, but with 50 mM TRIS.
• Washed streptavidin and coated flash plates with wash buffer. • Diluted receptor extract to give Bmax˜4000 cpm and add to the wells. • Wrapped the plates in aluminum foil and stored them at +4° C. overnight.
(§1) • Made a dilution series in DMSO of the test ligands. • Made a 5 nM solution of the radioactive tracer in buffer. • Mixed 2500 diluted tracer with 50 of the test ligand from each concentration of the dilution series. • Washed the receptor-coated flash plates. • Added 2000 per well of the ligand/radiolabel mixture to the receptor-coated flash plates. • Wrapped the plates in aluminum foil and incubate at +4° C. over night.
• Aspirated wells, and washed the flashed plates. Sealed the plate. • Measured the remaining radioactivity in the plate.

human LXRα = biological target: T2, human LXRα (Homo sapiens, UniProt Q13133); assay: Ligand-binding test procedure for human LXRα (3H T0901317 tracer, flash plates); settings: competition with 3H T0901317; read-out: hLXRa binding IC50
T2 construct: biotin (biotinylated); made in house; host or cells: E. coli
T2 sequence (Q13133 1-447): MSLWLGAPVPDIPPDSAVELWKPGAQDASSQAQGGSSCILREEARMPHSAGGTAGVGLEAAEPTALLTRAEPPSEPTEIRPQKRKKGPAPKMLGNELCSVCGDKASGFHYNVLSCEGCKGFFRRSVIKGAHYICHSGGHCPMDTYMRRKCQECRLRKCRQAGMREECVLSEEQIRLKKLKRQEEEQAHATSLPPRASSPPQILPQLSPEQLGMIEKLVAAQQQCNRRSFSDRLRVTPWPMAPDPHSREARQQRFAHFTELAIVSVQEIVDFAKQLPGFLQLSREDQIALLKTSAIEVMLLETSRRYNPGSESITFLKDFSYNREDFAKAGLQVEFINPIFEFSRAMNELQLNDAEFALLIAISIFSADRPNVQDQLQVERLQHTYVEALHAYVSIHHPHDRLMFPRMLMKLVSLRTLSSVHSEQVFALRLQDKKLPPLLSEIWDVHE
Description: II. Ligand-Binding Test Procedure for Human LXRa.
• Buffer: 100 mM KCl, 100 mM TRIS (pH 7.4 at +4° C.), 8.6% glycerol, 0.1 mM PMSF*, 2 mM MTG*, 0.2% CHAPS (* not used in wash buffer) • Tracer: ^3H T0901317 • Receptor source: E. coli extract from cells expressing biotinylated hLXRα. Extract was made in a similar buffer as above, but with 50 mM TRIS.
• Washed streptavidin and coated flash plates with wash buffer. • Diluted receptor extract to give Bmax˜4000 cpm and add to the wells. • Wrapped the plates in aluminum foil and stored them at +4° C. over night.
as §1
• Aspirated wells, and wash the flashed plates. Sealed the plate. • Measured the remaining radioactivity in the plate.

ABCA1 gene = assay: Gene regulation by LXR (murine): ABCA1 gene regulation, mRNA by real-time PCR; format: cell-based; settings: Mus musculus; for Emax: read-out: Agonism ABCA1

Structure (SMILES) | IC50 (human LXRβ) [µM] | IC50 (human LXRα) [µM] | EC50 (ABCA1 gene) [µM] | Emax (ABCA1 gene) [%]
N#CCCCS(=O)(=O)c1cccc(Oc2ccc(Cl)c(-c3ncnc4c(C(F)(F)F)cccc34)c2)c1 [Example 3, 4-[(3-{4-chloro-3-[8-(trifluoromethyl)quinazolin-4-yl]phenoxy}phenyl)sulfonyl]-butanenitrile] | 0.035 | 0.512 | 2.71 | 71
N#CCCCS(=O)(=O)c1cccc(Oc2ccc(Cl)c(-c3ncnc4c(Cl)cccc34)c2)c1 [Example 4, 4-({3-[4-chloro-3-(8-chloroquinazolin-4-yl)phenoxy]phenyl}sulfonyl)butanenitrile] | 0.105 | 1.81 | 4.34 | 48
CS(=O)(=O)CCCS(=O)(=O)c1cccc(Oc2ccc(Cl)c(-c3ncnc4c(C(F)(F)F)cccc34)c2)c1 [Example 5, 4-[2-chloro-5-(3-{[3-(methylsulfonyl)propyl]sulfonyl}phenoxy)phenyl]-8-(trifluoro-methyl)quinazoline] | 0.14 | 0.889 | 3.25 | 51
NC(=O)CCCS(=O)(=O)c1cccc(Oc2ccc(Cl)c(-c3ncnc4c(Cl)cccc34)c2)c1 [Example 8, 4-({3-[4-chloro-3-(8-chloroquinazolin-4-yl)phenoxy]phenyl}sulfonyl)butanamide] | 0.126 | 1.31 | 2.17 | 74
CS(=O)(=O)NCCCS(=O)(=O)c1cccc(Oc2ccc(F)c(-c3ncnc4c(C(F)(F)F)cccc34)c2)c1 [Example 29, N-{3-[(3-{4-fluoro-3-[8-(trifluoromethyl)quinazolin-4-yl]phenoxy}phenyl)sulfonyl]propyl}-methanesulfonamide] | 0.157 | 1.33 |  | 
NC(=O)CCCCS(=O)(=O)c1cccc(Oc2ccc(F)c(-c3ncnc4c(C(F)(F)F)cccc34)c2)c1 [Example 33, 5-[(3-{4-fluoro-3-[8-(trifluoromethyl)quinazolin-4-yl]phenoxy}phenyl)sulfonyl]pentanamide] | 0.13 | 1.35 |  | 
O=C(O)CCCCS(=O)(=O)c1cccc(Oc2ccc(F)c(-c3ncnc4c(C(F)(F)F)cccc34)c2)c1 [Example 34, 5-[(3-{4-fluoro-3-[8-(trifluoromethyl)quinazolin-4-yl]phenoxy}phenyl)sulfonyl]pentanoic acid] | 1.43 | 11.9 |  | 
NCCCCS(=O)(=O)c1cccc(Oc2ccc(F)c(-c3ncnc4c(C(F)(F)F)cccc34)c2)c1 [Example 35, 4-[(3-{4-fluoro-3-[8-(trifluoromethyl)quinazolin-4-yl]phenoxy}phenyl)sulfonyl]butan-1-amine] | 0.584 | 9.42 |  | 
CS(=O)(=O)NCCCCS(=O)(=O)c1cccc(Oc2ccc(F)c(-c3ncnc4c(C(F)(F)F)cccc34)c2)c1 [Example 36, N-{4-[(3-{4-fluoro-3-[8-(trifluoromethyl)quinazolin-4-yl]phenoxy}phenyl)sulfonyl]butyl]methanesulfonamide] | 0.221 | 2.73 |  | 
CS(=O)(=O)c1cc(Oc2ccc(F)c(-c3ncnc4c(C(F)(F)F)cccc34)c2)ccc1C#N [Example 38, 4-{4-fluoro-3-[8-(trifluoromethyl)quinazolin-4-yl]phenoxy}-2-(methylsulfonyl)benzonitrile] | 0.506 | 4.1 |  | 
CS(=O)(=O)c1cc(Oc2ccc(F)c(-c3ncnc4c(C(F)(F)F)cccc34)c2)ccc1C(N)=O [Example 39, 4-{4-fluoro-3-[8-(trifluoromethyl)quinazolin-4-yl]phenoxy}-2-(methylsulfonyl)benzamide] | 1.21 | 4.37 |  | 
CS(=O)(=O)c1cc(Oc2ccc(F)c(-c3ncnc4c(Cl)cccc34)c2)ccc1C(N)=O [Example 42, 4-[3-(8-chloroquinazolin-4-yl)-4-fluorophenoxy]-2-(methylsulfonyl)benzamide] | 4.9 | 10.9 |  | 
CNCCCS(=O)(=O)c1cccc(Oc2ccc(F)c(-c3ncnc4c(Cl)cccc34)c2)c1 [Example 44, 3-({3-[3-(8-chloroquinazolin-4-yl)-4-fluorophenoxy]phenyl}sulfonyl)-N-methylpropan-1-amine] | 0.965 | 7.31 |  | 

More lines, main results first:

IC50 (human LXRβ) [µM] | IC50 (human LXRα) [µM] | EC50 (ABCA1 gene) [µM] | Structure (SMILES) | Emax (ABCA1 gene) [%]
1.88 | 11.5 |  | NCCCCS(=O)(=O)c1cccc(Oc2ccc(F)c(-c3ncnc4c(Cl)cccc34)c2)c1 [Example 45, 4-({3-[3-(8-chloroquinazolin-4-yl)-4-fluorophenoxy]phenyl}sulfonyl)butan-1-amine] | 
0.296 | 8.18 |  | NCCCS(=O)(=O)c1cccc(Oc2ccc(F)c(-c3ncnc4c(Cl)cccc34)c2)c1 [Example 46, 3-({3-[3-(8-chloroquinazolin-4-yl)-4-fluorophenoxy]phenyl}sulfonyl)propan-1-amine] | 
0.274 | 3.98 |  | N#CCCCS(=O)(=O)c1cccc(Oc2ccc(F)c(-c3ncnc4c(Cl)cccc34)c2)c1 [Example 47, 4-({3-[3-(8-chloroquinazolin-4-yl)-4-fluorophenoxy]phenyl}sulfonyl)butanenitrile] | 
0.471 | 6.35 |  | CS(=O)(=O)NCCCS(=O)(=O)c1cccc(Oc2ccc(F)c(-c3ncnc4c(Cl)cccc34)c2)c1 [Example 50, N-[3-({3-[3-(8-chloroquinazolin-4-yl)-4-fluorophenoxy]phenyl}sulfonyl)propyl]methane-sulfonamide] | 
0.444 | 4.89 |  | CS(=O)(=O)NCCCCS(=O)(=O)c1cccc(Oc2ccc(F)c(-c3ncnc4c(Cl)cccc34)c2)c1 [Example 51, N-[4-({3-[3-(8-chloroquinazolin-4-yl)-4-fluorophenoxy]phenyl}sulfonyl)butyl]methane-sulfonamide] | 
0.324 | 232 |  | NC(=O)CCCCS(=O)(=O)c1cccc(Oc2ccc(F)c(-c3ncnc4c(Cl)cccc34)c2)c1 [Example 53, 5-({3-[3-(8-chloroquinazolin-4-yl)-4-fluorophenoxy]phenyl}sulfonyl)pentanamide] | 
0.584 | 6.54 |  | NC(=O)CCCS(=O)(=O)c1cccc(Oc2ccc(F)c(-c3ncnc4c(Cl)cccc34)c2)c1 [Example 54, 4-({3-[3-(8-chloroquinazolin-4-yl)-4-fluorophenoxy]phenyl}sulfonyl)butanamide] | 
0.15 | 2.26 |  | Cc1nc(-c2cc(Oc3cccc(S(=O)(=O)CCCC#N)c3)ccc2Cl)c2cccc(C(F)(F)F)c2n1 [Example 59, 4-[(3-{4-chloro-3-[2-methyl-8-(trifluoromethyl)quinazolin-4-yl]phenoxy}phenyl)sulfonyl]-butanenitrile] | 
0.343 | 7.04 |  | Cc1nc(-c2cc(Oc3cccc(S(=O)(=O)CCCNS(C)(=O)=O)c3)ccc2Cl)c2cccc(C(F)(F)F)c2n1 [Example 62, N-{3-[(3-{4-chloro-3-[2-methyl-8-(trifluoromethyl)quinazolin-4-yl]phenoxy}phenyl)sulfonyl]-propyl}methanesulfonamide] | 
0.326 | 4.54 |  | Cc1nc(-c2cc(Oc3cccc(S(=O)(=O)CCCCNS(C)(=O)=O)c3)ccc2Cl)c2cccc(C(F)(F)F)c2n1 [Example 63, N-{4-[(3-{4-chloro-3-[2-methyl-8-(trifluoromethyl)quinazolin-4-yl]phenoxy}phenyl)sulfonyl]-butyl}methanesulfonamide] | 
